Experiment [1] concerns IL-6. Description: IL-6 ELISA in LPS-activated RAW264.7 macrophages. Conditions: LPS 100 ng/mL, concentrations up to 5 mM, n=8. Format: cell-based, mouse. The protocol: (§1) Mouse RAW264.7 macrophage cell line (ATCC; Manassas, VA, USA) was maintained in DMEM culture medium containing 10% FBS and 1% antibiotic mix. For cell treatment, the test drugs at different doses were added to the culture 0.5 h prior to addition of 100 ng/mL LPS (Sigma-Aldrich Co., St Louis, MO, USA) and then cells were co-treated with LPS for 24 hours.
The amounts of IL-6 in culture medium from different treatments were measured by a commercial ELISA kit (Sigma-Aldrich), following the instructions provided by the manufacturer. Briefly, cells were seeded on a 96-well plate and various treatments were performed. The culture medium were collected and mixed with different assay reagents step by step. The resultant solutions were read at 450 nm on a microplate reader. There were eight repeats in each group (n=8). *P<0.05 vs LPS group. The experiment was duplicated.

The next experiment concerns IL1β. Description: RT-PCR of IL1β mRNA in LPS-activated RAW264.7 macrophages. The class given is cell-based, mouse. The settings on record: LPS 100 ng/mL; NDX1 0.1 mM and 0.5 mM, NAG 0.5 mM, NDX2 0.5 mM; n=4. The protocol:
as §1
Total RNA was purified using an RNeasy kit (QIAGEN Sciences, Valencia, CA) according to the protocol provided by the manufacturer, and was stored at −80° C. Synthesis of cDNA from total RNA and the quantitative PCR were carried out by using the iScript™ cDNA synthesis kit and the iQ™ SYBR Green Supermix kit (Bio-Rad Laboratories, Hercules, CA), respectively. The target genes included iNOS, IL-6 and IL-1β. Gene of 18s ribosomal RNA was used as an internal control. The threshold cycle (CT) value was calculated from amplification plots. Data was analyzed using the 2-ΔΔCT method with 18s rRNA serving as the reference. Gene expression was normalized to the control group in each experiment and represented as fold of change. […]

For experiment [2], the system named is IL-6. Briefly: Serum IL-6 ELISA in LPS-induced systemic inflammation in mice. The class given is in vivo, mouse. Conditions: LPS 10 mg/kg I.P., compound 300 mg/kg I.V. On the procedure: Male C57BL6/J mice (8 to 10-week-old, 20-25 g) purchased from Charles River were used in this study. Mice were kept in the animal facility of the School of Medicine, University of Virginia (UVa). All experimental procedures were approved by the Ethics Committee on Animal Research of Medical School, UVa and are in accordance with the Guidelines of the National Council for Animal Experimentation Control (CONCEA).
Moderate endotoxemia by LPS was induced with a single dose (10 mg/Kg, i.p.) of LPS (Escherichia coli 0111:B4, Sigma Chemical Co., St. Louis, MO, United States), 30 min after intravenous injection of NAG or NDX1 or NDX2 or the vehicle (saline). Two doses (200 mg/kg body weight and 300 mg/kg body weight) were tested for NAG, NDX1 and NDX2. Animals without any treatment were used to obtain the baseline data. Six hours after LPS treatment, inflammation assays were performed as described below. A total of 40 animals were randomly divided into 5 groups (8 mice/group): non-treatment (NT); 10 mg/Kg LPS plus saline (LPS); 10 mg/Kg LPS plus NAG (LPS+NAG); 10 mg/Kg LPS plus NDX1 (LPS+NDX1); and 10 mg/Kg LPS plus NDX2 (LPS+NDX2). The experiment was duplicated.
TNFa and IL-6 concentrations in the serum were determined using enzyme-linked immunosorbent assay (ELISA) according to the manufacturer's instructions. […] The resultant solutions were read at 450 nm on a microplate reader.
On the technique in general: In an ELISA, binding on a coated surface is turned into a signal by an enzyme label.

On to `CC(=O)N[C@H]1C(O)O[C@H](CO)[C@@H](O)[C@@H]1O` (stereo partly drawn) [NAG, N-acetyl glucosamine], for which the “reduction of IL-6 production (ELISA)” value in the experiment on IL-6 [1] is reported as “could significantly reduce IL-6 production”. The “inhibition of IL1β mRNA expression (RT-PCR)” value in the experiment with IL1β is “could inhibit IL1β”. The “decrease of serum level of IL-6” value with IL-6 [2] is recorded as “significantly decrease serum levels”.
